Data: US8207122B2, “Anti-cancer bioactive peptides isolated from crude venom of Xinjiang Lycosa singoriensis” (Xiamen Bioway Biotech Co., Limited, priority 2007, dated 2012)
Where a SMILES comes first, the peptide text is derived from it. Where no end group is shown, it is not given here.

How the values were obtained:
[1] = Toxicity on a whole animal, subcutaneous injection; format: in vivo; conditions: 200 mg/Kg body weight, mice, within 48 hours
Hela cells = assay: Comparison of inhibitory activity of peptides on Hela cells; format: cell-based; conditions: for activity compared with SEQ ID NO. 1: anti-cancer activity, in words
Method: The above-mentioned experiments have verified the peptide has strong inhibition on the growth of cancer cells and solid tumors. In order to study the inhibition degree of difference sequences (SEQ. Nos. 1-5) of the peptide on tumor cells, comparative experiments of measuring the activity of Hela cells were conducted (as shown in FIG. 7).
Nos. 1-4, at a concentration of 40 μmol/L, the inhibition rate on Hela cells was about 90%, at 20 μmol/L, about 50%, at 5 μmol/L, only 2%. Thus, the inhibition degree of SEQ. Nos. 1-4 on Hela cells was basically equal. However, for SEQ. No. 5, at a concentration of 40 μmol/L, 20 μmol/L, and 5 μmol/L, the inhibition rate on Hela cells was more than 80%. Compared with that of SEQ. Nos. 1-4, the inhibition degree of SEQ. No. 5 had been increased by about 10 times. No. 1 and SEQ. No. 5 could dissolve 19% and 37% red cells respectively, which meant the hemolytic activity of SEQ. No. 5 was […] than that of SEQ. No. 1.

CC[C@H](C)[C@H](NC(=O)[C@H](Cc1ccccc1)NC(=O)[C@H](CCCCN)NC(=O)[C@H](C)NC(=O)[C@@H](NC(=O)[C@H](CO)NC(=O)[C@H](CCCCN)NC(=O)[C@H](CCSC)NC(=O)[C@H](C)NC(=O)[C@H](CCCCN)NC(=O)[C@H](Cc1ccccc1)NC(=O)[C@H](Cc1c[nH]c2ccccc12)NC(=O)CNC(=O)[C@H](CCCCN)NC(=O)[C@@H](N)CCCNC(=N)N)[C@@H](C)CC)C(=O)N[C@@H](C)C(=O)N[C@@H](CCCCN)C(=O)N[C@@H](CCC(=O)O)C(=O)N[C@@H](CCCCN)C(=O)N[C@@H](CC(C)C)C(=O)N[C@@H](CCCCN)C(=O)N[C@@H](CCC(=O)O)C(=O)N[C@@H](Cc1c[nH]cn1)C(=O)N[C@@H](CC(C)C)C(N)=O [SEQ. No. 1] (H-RKGWFKAMKSIAKFIAKEKLKEHL-NH2)
toxic reaction [1]: no obvious toxic reaction was observed

CC[C@H](C)[C@H](NC(=O)[C@H](Cc1ccccc1)NC(=O)[C@H](CCCCN)NC(=O)[C@H](C)NC(=O)[C@@H](NC(=O)[C@H](CO)NC(=O)[C@H](CCCCN)NC(=O)[C@H](CCSC)NC(=O)[C@H](C)NC(=O)[C@@H](N)CCCCN)[C@@H](C)CC)C(=O)N[C@@H](C)C(=O)N[C@@H](CCCCN)C(N)=O [SEQ. No. 5, Lys Ala Met Lys Ser Ile Ala Lys Phe Ile Ala Lys-NH2] (H-KAMKSIAKFIAK-NH2)
inhibition rate on Hela cells (Hela cells; 5 μmol/L): more than 80% | inhibition rate on Hela cells (Hela cells; 20 μmol/L): more than 80% | inhibition rate on Hela cells (Hela cells; 40 μmol/L): more than 80%

Lys Gly Trp Phe Lys Ala Met Lys Ser Ile Ala Lys Phe Ile Ala Lys Glu Lys Leu Lys Glu His Leu-NH2 (KGWFKAMKSIAKFIAKEKLKEHL-NH2) [SEQ ID NO. 3]
activity compared with SEQ ID NO. 1 (Hela cells): same activity

Lys Gly Trp Phe Lys Ala Met Lys Ser Ile Ala Lys Phe Ile Ala Lys Glu Lys Met Lys Glu His Leu-NH2 (KGWFKAMKSIAKFIAKEKMKEHL-NH2; listed as Lycosa singoriensis) [SEQ ID NO. 2]
activity compared with SEQ ID NO. 1 (Hela cells): same activity

WFKAMKSIAKFIAKEKLK [SEQ ID NO. 4]
activity compared with SEQ ID NO. 1 (Hela cells): same activity
